The values that follow come from paper PMC9667784, “Synthesis, biological evaluation and computational studies of pyrazole derivatives as Mycobacterium tuberculosis CYP121A1 inhibitors” (RSC Medicinal Chemistry, 2022).

The subject of series [1] is Mtb H37Rv. Description: microbe, parasite or virus in culture. Type of series: cell-based. The settings on record: Mycobacterium tuberculosis.
The target of another series is T1, Mtb CYP121A1 (Mycobacterium tuberculosis, UniProt P9WPP7).
T1 construct: made in house
T1 sequence (P9WPP7 whole entry): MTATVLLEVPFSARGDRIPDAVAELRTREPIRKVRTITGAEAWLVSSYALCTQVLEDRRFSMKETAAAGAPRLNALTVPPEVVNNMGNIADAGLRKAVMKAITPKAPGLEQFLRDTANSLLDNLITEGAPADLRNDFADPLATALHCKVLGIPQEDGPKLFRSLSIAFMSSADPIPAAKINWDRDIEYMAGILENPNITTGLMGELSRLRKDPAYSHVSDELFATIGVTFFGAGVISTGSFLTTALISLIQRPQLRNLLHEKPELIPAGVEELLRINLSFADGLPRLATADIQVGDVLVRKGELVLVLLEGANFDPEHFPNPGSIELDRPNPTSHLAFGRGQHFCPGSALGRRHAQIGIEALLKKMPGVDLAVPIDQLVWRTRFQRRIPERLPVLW
The series can be described thus: biochemical. The series is classed as binding. The settings on record: for Kd: 1 μM protein, 0 to 150 μM compound, plate reader, triplicate; for Soret shift: UV-vis absorbance, Soret band shift on ligand binding; for Spectral response in the UV-vis assay: compared with the imidazole derivatives.

Series [2] relates to Mtb H37Rv. On the set-up: method as in PMID 29185746. The settings on record: previously prepared methoxy derivatives; cited from earlier work.
A further series relates to Mtb. On the set-up: method as in PMID 31367508. The settings on record: lead diarylpyrazole derivatives, Fig. 2; cited from earlier work.
Another series deals with CYP121A1. The settings on record: lead diarylpyrazole derivatives, Fig. 2; cited from earlier work.
The mark [3] stands for this setting: Mtb H37Rv, SPOTi, five weeks at 37 °C, average of two independent experiments, read-out: MIC90.

In brackets after ≈: the same amount, converted by molar mass. Several values for one entry are separate records, joined by “and”; a condition that tells them apart may be missing. Identical values can stand only once. Like-named read-outs stand apart in the source and are kept apart here.

Consider `COc1ccc(-c2nn(-c3ccc(F)cc3)cc2Cn2ccnc2)cc1` [11a, 4-((1H-Imidazol-1-yl)methyl)-1-(4-fluorophenyl)-3-(4-methoxyphenyl)-1H-pyrazole], for which the melting point (in general, the temperature, or range, at which the solid turns liquid) lay within 150 to 152 °C. Further, in the series on Mtb H37Rv [1] (setting [3]), the MIC90 was 4.3 µg/mL and 12.3 µM. In addition, on Mtb CYP121A1, the Kd (commonly the constant that tells how readily two partners part at equilibrium) turned out to be 65 ± 16.6 µM and the Soret shift is reported as 417 to 421 nm.
Take `COc1ccc(-c2nn(-c3ccc(Cl)cc3)cc2Cn2ccnc2)cc1` [11b, 4-((1H-Imidazol-1-yl)methyl)-1-(4-chlorophenyl)-3-(4-methoxyphenyl)-1H-pyrazole]: the melting point was in the range of 136 to 138 °C. The MIC90 in the series with Mtb H37Rv [1] (setting [3]) was 6 µg/mL and 16.5 µM.
Turning to `CCOc1ccc(-c2nn(-c3ccc(F)cc3)cc2Cn2ccnc2)cc1` [11c, 4-((1H-Imidazol-1-yl)methyl)-3-(4-ethoxyphenyl)-1-(4-fluorophenyl)-1H-pyrazole], the melting point was in the range of 118 to 120 °C. In addition, the MIC90 with Mtb H37Rv [1] (setting [3]) was 12 µg/mL and 33.2 µM. On Mtb CYP121A1, the affinity, expressed as Kd, was 54 ± 5.2 µM and the Soret shift is reported as 417 to 422 nm.
`CCOc1ccc(-c2nn(-c3ccc(Cl)cc3)cc2Cn2ccnc2)cc1` [11d, 4-((1H-Imidazol-1-yl)methyl)-1-(4-chlorophenyl)-3-(4-ethoxyphenyl)-1H-pyrazole] registered a melting point of 124 to 126 °C. Also, the MIC90 in the series on Mtb H37Rv [1] (setting [3]) is 5 µg/mL and 13.3 µM. Further, on Mtb CYP121A1, binding was characterised by a dissociation constant (Kd) of 18.8 ± 10.2 µM and the Soret shift is 417 to 420 nm.
Compound `CCCOc1ccc(-c2nn(-c3ccc(F)cc3)cc2Cn2ccnc2)cc1` [11e, 4-((1H-Imidazol-1-yl)methyl)-1-(4-fluorophenyl)-3-(4-propoxyphenyl)-1H-pyrazole] returned a melting point of 120 to 122 °C. Moreover, the MIC90 in the series on Mtb H37Rv [1] (setting [3]) was 6 µg/mL and 15.9 µM. On Mtb CYP121A1, binding was put at a Kd of 22.3 ± 4.2 µM and the Soret shift is 417 to 420 nm.
`CCCOc1ccc(-c2nn(-c3ccc(Cl)cc3)cc2Cn2ccnc2)cc1` [11f, 4-((1H-Imidazol-1-yl)methyl)-1-(4-chlorophenyl)-3-(4-propoxyphenyl)-1H-pyrazole] displayed a melting point of 90 to 92 °C. The MIC90 with Mtb H37Rv [1] (setting [3]) is 4 µg/mL and 10.1 µM. Moreover, on Mtb CYP121A1, binding was put at a Kd of 11.7 µM and the Soret shift lay in the range of 417 to 419 nm. The “Binding type from difference spectra (type I / type II)” value at Mtb CYP121A1 (UV-vis binding difference spectra) is given as “type II”.
Turning to `CC(C)Oc1ccc(-c2nn(-c3ccc(F)cc3)cc2Cn2ccnc2)cc1` [11g, 4-((1H-Imidazol-1-yl)methyl)-1-(4-fluorophenyl)-3-(4-isopropoxyphenyl)-1H-pyrazole], the melting point lay in the range of 96 to 98 °C. Also, the MIC90 with Mtb H37Rv [1] (setting [3]) is 4.3 µg/mL and 11.4 µM. Moreover, at Mtb CYP121A1, the dissociation constant Kd was 38.5 ± 8.7 µM and the Soret shift is 417 to 419 nm.
Take `CC(C)Oc1ccc(-c2nn(-c3ccc(Cl)cc3)cc2Cn2ccnc2)cc1` [11h, 4-((1H-Imidazol-1-yl)methyl)-1-(4-chlorophenyl)-3-(4-isopropoxyphenyl)-1H-pyrazole]: the melting point was 98 to 100 °C. Further, the MIC90 with Mtb H37Rv [1] (setting [3]) is 4.4 µg/mL and 11.9 µM. In addition, on Mtb CYP121A1, the Kd came to 17.7 µM and the Soret shift lay in the range of 417 to 419 nm.
With `COc1ccc(-c2nn(-c3ccc(F)cc3)cc2Cn2cncn2)cc1` [12a, 1-((1-(4-Fluorophenyl)-3-(4-methoxyphenyl)-1H-pyrazol-4-yl)methyl)-1H-1,2,4-triazole], the melting point fell in the range of 150 to 152 °C. For the same compound, in the series with Mtb H37Rv [1] (setting [3]), the MIC90 was 12.8 µg/mL and 36.7 µM.
For the compound `COc1ccc(-c2nn(-c3ccc(Cl)cc3)cc2Cn2cncn2)cc1` [12b, 1-((1-(4-Chlorophenyl)-3-(4-methoxyphenyl)-1H-pyrazol-4-yl)methyl)-1H-1,2,4-triazole], the melting point lay in the range of 124 to 126 °C. Besides, the MIC90 in the series with Mtb H37Rv [1] (setting [3]) is 4.4 µg/mL and 11.9 µM. Moreover, on Mtb CYP121A1, the equilibrium dissociation constant (Kd) was 5.13 µM and 5.1 µM; the Soret shift was 417 to 417 nm; the “Spectral response in the UV-vis assay” value is “weak spectral response”.
`CCOc1ccc(-c2nn(-c3ccc(F)cc3)cc2Cn2cncn2)cc1` [12c, 1-((3-(4-Ethoxyphenyl)-1-(4-fluorophenyl)-1H-pyrazol-4-yl)methyl)-1H-1,2,4-triazole] yielded a melting point of 140 to 142 °C. Moreover, the MIC90 in the series with Mtb H37Rv [1] (setting [3]) is 25.6 µg/mL and 70.5 µM.
For `CCOc1ccc(-c2nn(-c3ccc(Cl)cc3)cc2Cn2cncn2)cc1` [12d, 1-((1-(4-Chlorophenyl)-3-(4-ethoxyphenyl)-1H-pyrazol-4-yl)methyl)-1H-1,2,4-triazole], the melting point fell in the range of 122 to 124 °C. Besides, in the series with Mtb H37Rv [1] (setting [3]), the MIC90 was 6.4 µg/mL and 16.8 µM. The “Spectral response in the UV-vis assay” value at Mtb CYP121A1 is listed as “weak spectral response”.
`CCCOc1ccc(-c2nn(-c3ccc(F)cc3)cc2Cn2cncn2)cc1` [12e, 1-((1-(4-Fluorophenyl)-3-(4-propoxyphenyl)-1H-pyrazol-4-yl)methyl)-1H-1,2,4-triazole] gave a melting point of 120 to 122 °C. Also, the MIC90 in the series on Mtb H37Rv [1] (setting [3]) is 20.9 µg/mL and 55.5 µM.
For `CCCOc1ccc(-c2nn(-c3ccc(Cl)cc3)cc2Cn2cncn2)cc1` [12f, 1-((1-(4-Chlorophenyl)-3-(4-propoxyphenyl)-1H-pyrazol-4-yl)methyl)-1H-1,2,4-triazole], the melting point lay within 114 to 116 °C. The MIC90 with Mtb H37Rv [1] (setting [3]) was 6.4 µg/mL and 16.2 µM.
Consider `CC(C)Oc1ccc(-c2nn(-c3ccc(F)cc3)cc2Cn2cncn2)cc1` [12g, 1-((1-(4-Fluorophenyl)-3-(4-isopropoxyphenyl)-1H-pyrazol-4-yl)methyl)-1H-1,2,4-triazole], for which the melting point was 118 to 120 °C. Moreover, the MIC90 in the series on Mtb H37Rv [1] (setting [3]) was 20.9 µg/mL and 55.5 µM.
`CC(C)Oc1ccc(-c2nn(-c3ccc(Cl)cc3)cc2Cn2cncn2)cc1` [12h, 1-((1-(4-Chlorophenyl)-3-(4-isopropoxyphenyl)-1H-pyrazol-4-yl)methyl)-1H-1,2,4-triazole]: the melting point lay within 98 to 100 °C. Further, the MIC90 in the series on Mtb H37Rv [1] (setting [3]) was 25.6 µg/mL and 65.1 µM.
Regarding `NNC(=O)c1ccncc1` [Isoniazid, reference compound], the MIC90 in the series with Mtb H37Rv [1] (setting [3]) was 0.2 µg/mL and 1.8 µM.
With `NC[C@H]1O[C@H](O[C@H]2[C@H](O)[C@@H](O[C@H]3O[C@H](CO)[C@@H](O)[C@H](N)[C@H]3O)[C@H](N)C[C@@H]2N)[C@H](O)[C@@H](O)[C@@H]1O` [Kanamycin, reference compound], the MIC90 in the series with Mtb H37Rv [1] was 7.8 µg/mL and 16.1 µM.
Regarding `COc1ccc(-c2nn(-c3ccccc3)cc2Cn2ccnc2)cc1` [P1], in the series on Mtb H37Rv [2], the MIC90 was 25 µg/mL (≈ 75.7 µM).
Take `COc1ccc(-c2nn(-c3ccccc3)cc2Cn2cncn2)cc1` [P2]: the MIC90 in the series on Mtb H37Rv [2] was 25 µg/mL (≈ 75.4 µM).
`CCc1ccc(-c2nn(-c3ccccc3)cc2Cn2ccnc2)cc1` [R = Et]: the minimum inhibitory concentration (MIC) (as a rule, the smallest concentration in the dilution series that meets the test's criterion for growth inhibition) in the series on Mtb is 1.562 µg/mL (≈ 4.76 µM). Further, the Kd on CYP121A1 is 18.3 ± 3.4 µM.
As for `CCCc1ccc(-c2nn(-c3ccccc3)cc2Cn2ccnc2)cc1` [R = Pr], the minimum inhibitory concentration (MIC) in the series with Mtb is 0.78 µg/mL and 0.781 µg/mL. The dissociation constant Kd on CYP121A1 is 53.7 ± 5.9 µM.
Turning to `CC(C)c1ccc(-c2nn(-c3ccccc3)cc2Cn2ccnc2)cc1` [R = iPr], the minimum inhibitory concentration (MIC) with Mtb was 1.562 µg/mL (≈ 4.56 µM). In addition, on CYP121A1, the Kd is 22.5 ± 3.5 µM.
Consider `CO[C@H]1/C=C/O[C@@]2(C)Oc3c(C)c(O)c4c(O)c(c(/C=N/N5CCN(C)CC5)c(O)c4c3C2=O)NC(=O)/C(C)=C\C=C\[C@H](C)[C@H](O)[C@@H](C)[C@@H](O)[C@@H](C)[C@H](OC(C)=O)[C@@H]1C` [Rifampicin, reference compound], for which, in the series with Mtb H37Rv [1] (setting [3]), the MIC90 was 0.2 µg/mL and 0.3 µM.
